Results as given in patent US9212182B2, “Bicyclic sulfonamide compounds as sodium channel inhibitors” (AMGEN INC., priority 2013, dated 2015).

biological target: Nav 1.7 (Homo sapiens (Human), UniProt Q15858); experiment: in-vitro Nav 1.7 PX (IC50); type: cell-based; conditions: not given
Sequence (Q15858 whole entry): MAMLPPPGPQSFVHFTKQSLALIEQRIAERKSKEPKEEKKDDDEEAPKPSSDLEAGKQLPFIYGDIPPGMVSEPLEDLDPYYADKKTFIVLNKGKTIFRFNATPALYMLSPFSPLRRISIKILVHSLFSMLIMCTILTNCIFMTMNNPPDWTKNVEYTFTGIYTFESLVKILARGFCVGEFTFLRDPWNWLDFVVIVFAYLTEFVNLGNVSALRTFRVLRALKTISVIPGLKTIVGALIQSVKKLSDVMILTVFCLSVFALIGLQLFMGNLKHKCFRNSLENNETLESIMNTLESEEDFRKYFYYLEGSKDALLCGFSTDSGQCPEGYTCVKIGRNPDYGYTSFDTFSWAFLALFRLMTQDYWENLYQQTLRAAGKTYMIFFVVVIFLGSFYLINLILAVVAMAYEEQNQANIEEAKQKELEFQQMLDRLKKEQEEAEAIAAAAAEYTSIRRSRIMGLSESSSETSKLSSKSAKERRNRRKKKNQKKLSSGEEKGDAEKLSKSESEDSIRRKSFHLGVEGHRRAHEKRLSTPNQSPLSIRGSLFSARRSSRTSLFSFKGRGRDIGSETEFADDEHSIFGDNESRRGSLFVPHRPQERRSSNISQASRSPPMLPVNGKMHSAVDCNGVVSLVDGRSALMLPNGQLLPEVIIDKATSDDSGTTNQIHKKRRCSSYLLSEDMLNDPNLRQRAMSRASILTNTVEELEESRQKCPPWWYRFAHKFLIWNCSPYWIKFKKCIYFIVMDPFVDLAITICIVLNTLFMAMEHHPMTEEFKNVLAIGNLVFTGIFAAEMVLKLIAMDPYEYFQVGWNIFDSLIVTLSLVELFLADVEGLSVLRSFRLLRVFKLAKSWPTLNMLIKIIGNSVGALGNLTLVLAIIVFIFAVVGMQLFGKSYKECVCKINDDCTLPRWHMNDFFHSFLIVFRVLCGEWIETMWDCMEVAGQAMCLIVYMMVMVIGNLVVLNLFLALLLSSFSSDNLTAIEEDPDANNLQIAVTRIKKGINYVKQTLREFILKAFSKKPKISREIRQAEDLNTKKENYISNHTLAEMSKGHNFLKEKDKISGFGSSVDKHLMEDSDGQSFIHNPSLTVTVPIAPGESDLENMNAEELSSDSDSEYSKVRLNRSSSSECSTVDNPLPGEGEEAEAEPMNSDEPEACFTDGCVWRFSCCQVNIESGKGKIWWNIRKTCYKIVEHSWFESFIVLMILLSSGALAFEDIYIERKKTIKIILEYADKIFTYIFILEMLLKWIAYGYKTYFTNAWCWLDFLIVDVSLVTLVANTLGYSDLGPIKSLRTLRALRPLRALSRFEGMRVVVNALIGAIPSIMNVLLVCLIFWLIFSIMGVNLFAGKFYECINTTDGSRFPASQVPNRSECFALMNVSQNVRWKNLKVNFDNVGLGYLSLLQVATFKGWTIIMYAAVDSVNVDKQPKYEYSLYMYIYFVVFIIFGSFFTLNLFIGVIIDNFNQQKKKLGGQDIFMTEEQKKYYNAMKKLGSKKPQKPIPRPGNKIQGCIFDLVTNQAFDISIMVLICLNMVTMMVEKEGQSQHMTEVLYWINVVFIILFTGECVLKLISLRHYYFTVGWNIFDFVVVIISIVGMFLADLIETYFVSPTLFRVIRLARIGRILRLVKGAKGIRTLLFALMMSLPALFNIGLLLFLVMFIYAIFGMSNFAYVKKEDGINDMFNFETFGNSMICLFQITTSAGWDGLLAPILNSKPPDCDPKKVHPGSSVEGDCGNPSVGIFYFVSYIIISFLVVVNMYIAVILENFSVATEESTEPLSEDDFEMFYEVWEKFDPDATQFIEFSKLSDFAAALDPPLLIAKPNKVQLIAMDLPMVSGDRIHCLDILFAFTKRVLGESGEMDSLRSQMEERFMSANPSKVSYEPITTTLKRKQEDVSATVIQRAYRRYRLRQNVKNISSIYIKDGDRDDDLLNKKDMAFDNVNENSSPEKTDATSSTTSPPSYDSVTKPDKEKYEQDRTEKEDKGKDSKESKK

IC50 [nM]	Compound
3590	COc1ccc(CC#N)cc1-n1c(=O)ccc2cc(S(=O)(=O)Nc3ccon3)ccc21 [Example 1146, 1-(5-(cyanomethyl)-2-methoxyphenyl)-N-3-isoxazolyl-2-oxo-1,2-dihydro-6-quinolinesulfonamide]
94	COc1cc(C#CC2(F)CCCC2)c(F)cc1-n1c(=O)ccc2cc(S(=O)(=O)Nc3cccnn3)ccc21 (atropisomer, axis not shown; (P)) [Example 1238, (P)-1-(5-fluoro-4-((1-fluorocyclopentyl)ethynyl)-2-methoxyphenyl)-2-oxo-N-3-pyridazinyl-1,2-dihydro-6-quinolinesulfonamide]
79	COc1cc(-c2cccc(C(F)(F)F)c2)ccc1-n1c(=O)ccc2cc(S(=O)(=O)Nc3cccc(F)n3)ccc21 (atropisomer, axis not shown; (P)) [Example 1242, (P)—N-(6-fluoro-2-pyridinyl)-1-(3-methoxy-3′-(trifluoromethyl)-4-biphenylyl)-2-oxo-1,2-dihydro-6-quinolinesulfonamide]

same assay, conditions: in-vitro Nav 1.7 PX data

Compound	IC50 [nM]
COc1cc(Cl)c(-c2cc(F)cc(Cl)c2)cc1-n1c(=O)ccc2cc(S(=O)(=O)Nc3ccon3)ccc21 [Example 613, 1-(3′,6-dichloro-5′-fluoro-4-methoxy-3-biphenylyl)-N-3-isoxazolyl-2-oxo-1,2-dihydro-6-quinolinesulfonamide]	18
COc1cc(-c2cc(C)cc(F)c2)ccc1-n1c(=O)ccc2cc(S(=O)(=O)Nc3ccon3)ccc21 [Example 1015, 1-(3′-fluoro-3-methoxy-5′-methyl-4-biphenylyl)-N-3-isoxazolyl-2-oxo-1,2-dihydro-6-quinolinesulfonamide]	12
COc1cc(-c2cccc(Cl)c2C)ccc1-n1c(=O)ccc2cc(S(=O)(=O)Nc3ccon3)ccc21 [Example 1028, 1-(3′-chloro-3-methoxy-2′-methyl-4-biphenylyl)-N-3-isoxazolyl-2-oxo-1,2-dihydro-6-quinolinesulfonamide]	18
COc1cc(Cl)cc(-c2ccc(-n3c(=O)ccc4cc(S(=O)(=O)Nc5ncco5)ccc43)c(OC)c2)c1 [Example 925, 1-(3′-chloro-3,5′-dimethoxy-4-biphenylyl)-N-1,3-oxazol-2-yl-2-oxo-1,2-dihydro-6-quinolinesulfonamide]	22
COc1cc(-c2ccc(Cl)cc2)c(F)cc1-n1c(=O)ccc2cc(S(=O)(=O)Nc3ncco3)ccc21 [Example 753, 1-(4′-chloro-2-fluoro-5-methoxy-4-biphenylyl)-N-1,3-oxazol-2-yl-2-oxo-1,2-dihydro-6-quinolinesulfonamide]	37
COc1cc(-c2ccc(Cl)cc2)c(F)cc1-n1c(=O)ccc2cc(S(=O)(=O)Nc3ncccn3)ccc21 (atropisomer, axis not shown) [Example 598, 1-(4′-chloro-2-fluoro-5-methoxy-4-biphenylyl)-2-oxo-N-2-pyrimidinyl-1,2-dihydro-6-quinolinesulfonamide]	28
COc1cc(-c2ccc(Cl)c(C)c2)c(F)cc1-n1c(=O)ccc2cc(S(=O)(=O)Nc3ncon3)ccc21 (atropisomer, axis not shown; (P)) [Example 663, (P)-1-(4′-chloro-2-fluoro-5-methoxy-3′-methyl-4-biphenylyl)-N-1,2,4-oxadiazol-3-yl-2-oxo-1,2-dihydro-6-quinolinesulfonamide]	6
COc1cc(-c2cc(Cl)cnc2OC)c(F)cc1-n1c(=O)ccc2cc(S(=O)(=O)Nc3cccnn3)ccc21 [Example 775, 1-(4-(5-chloro-2-methoxy-3-pyridinyl)-5-fluoro-2-methoxyphenyl)-2-oxo-N-3-pyridazinyl-1,2-dihydro-6-quinolinesulfonamide]	47
COc1cc(Cl)cc(-c2ccc(-n3c(=O)ccc4cc(S(=O)(=O)Nc5cccnn5)ccc43)c(OC)c2)c1 [Example 928, 1-(3′-chloro-3,5′-dimethoxy-4-biphenylyl)-2-oxo-N-3-pyridazinyl-1,2-dihydro-6-quinolinesulfonamide]	8
COc1cc(-c2cccc(C(F)(F)F)c2)c(F)cc1-n1c(=O)ccc2cc(S(=O)(=O)Nc3ncc(F)cn3)ccc21 [Example 802, 1-(2-fluoro-5-methoxy-3′-(trifluoromethyl)-4-biphenylyl)-N-(5-fluoro-2-pyrimidinyl)-2-oxo-1,2-dihydro-6-quinolinesulfonamide]	21
COc1cc(C#CC(F)(F)F)c(F)cc1-n1c(=O)ccc2cc(S(=O)(=O)Nc3ccon3)ccc21 [Example 644, 1-(5-fluoro-2-methoxy-4-(3,3,3-trifluoro-1-PROPYN-1-yl)phenyl)-N-3-isoxazolyl-2-oxo-1,2-dihydro-6-quinolinesulfonamide]	387

The next lines start with the values.

IC50 [nM]	Compound
80	COc1cc(-c2ccc(C)c(F)c2)c(F)cc1-n1c(=O)ccc2cc(S(=O)(=O)Nc3cc(C)ncn3)ccc21 [Example 1129, 1-(2,3′-difluoro-5-methoxy-4′-methyl-4-biphenylyl)-N-(6-methyl-4-pyrimidinyl)-2-oxo-1,2-dihydro-6-quinolinesulfonamide]
34	COc1cc(-c2ccc(C)c(F)c2)c(F)cc1-n1c(=O)ccc2cc(S(=O)(=O)Nc3ncc(F)cn3)ccc21 [Example 1127, 1-(2,3′-difluoro-5-methoxy-4′-methyl-4-biphenylyl)-N-(5-fluoro-2-pyrimidinyl)-2-oxo-1,2-dihydro-6-quinolinesulfonamide]
1480	COc1cc(C[C@H]2CCCOC2)c(F)cc1-n1c(=O)ccc2cc(S(=O)(=O)Nc3ccon3)ccc21 [Example 1118, 1-(5-fluoro-2-methoxy-4-((3R)-tetrahydro-2H-pyran-3-ylmethyl)phenyl)-N-3-isoxazolyl-2-oxo-1,2-dihydro-6-quinolinesulfonamide, 1-(5-fluoro-2-methoxy-4-((3S)-tetrahydro-2H-pyran-3-ylmethyl)phenyl)-N-3-isoxazolyl-2-oxo-1,2-dihydro-6-quinolinesulfonamide]
18	COc1cc(-c2ccc(Cl)c(C)c2)c(F)cc1-n1c(=O)ccc2cc(S(=O)(=O)Nc3cnsn3)ccc21 [Example 1072, 1-(4′-chloro-2-fluoro-5-methoxy-3′-methyl-4-biphenylyl)-2-oxo-N-1,2,5-thiadiazol-3-yl-1,2-dihydro-6-quinolinesulfonamide]

same assay, conditions: in-vitro Nav 1.7 PX data (PatchXpress)

IC50 [nM]	Compound
25	COc1ccc(Cl)c(-c2ccc(-n3c(=O)ccc4cc(S(=O)(=O)Nc5ccon5)ccc43)c(OC)c2)c1 [Example 1031, 1-(2′-chloro-3,5′-dimethoxy-4-biphenylyl)-N-3-isoxazolyl-2-oxo-1,2-dihydro-6-quinolinesulfonamide]

same assay, conditions: in-vitro Nav 1.7 PX data, Table 4

IC50 [nM]	Compound
159	COc1cc(-c2ccc(Cl)cc2)c(F)cc1-n1c(=O)ccc2cc(S(=O)(=O)Nc3ccc(F)cn3)ccc21 (atropisomer, axis not shown; (P)) [Example 1163, (P)-1-(4′-chloro-2-fluoro-5-methoxy-4-biphenylyl)-N-(5-fluoro-2-pyridinyl)-2-oxo-1,2-dihydro-6-quinolinesulfonamide]

same assay, conditions: in-vitro PatchXpress (PX)

IC50 [nM]	Compound
8	COc1cc(-c2cc(F)cc(Cl)c2)ccc1-n1c(=O)ccc2cc(S(=O)(=O)Nc3cccnn3)ccc21 (atropisomer, axis not shown; (P)) [Example 480, (P)-1-(3′-chloro-5′-fluoro-3-methoxy-4-biphenylyl)-2-oxo-N-3-pyridazinyl-1,2-dihydro-6-quinolinesulfonamide]
